“Also recorded” adds a separate entry of the source.
Experiments:
Assay type in all cases: cell-based, Staphylococcus aureus
[1] = test system: S. aureus 6538; experiment: Preventative assay, HA spherules pretreated then inoculated with S. aureus
Experimental: Preventative ability of BP-ciprofloxacin conjugate to inhibit S. aureus 6538 adherence to HA spherules: Various BP-ciprofloxacin concentrations were introduced to HA powder (spherules) suspended in TSB microbiological medium. Solutions containing conjugate and HA spherules were introduced to wells of 24-well plates. Final concentrations of powder were 10 mg/1 mL, while final concentrations of the conjugate were 0.12-250 mg/L. Suspensions were left for 24 h/37° C./shaking. After 24 h, suspensions were removed from the wells and impulse-centrifuged to precipitate HA powder. Next, supernatant was very gently discarded and a fresh 1 mL of S. aureus of density 10^5 cfu/mL was introduced to the HA spherules. Subsequently, this solution was shaken, absorbance was measured using 580 nm wavelength and left for 24 h/37° C./shaking. After incubation absorbance was measured again and values from 0 hr and 24 hrs were compared to assess reduction of bacterial growth with regard to control sample one (bacterial suspension but no spherules) and control sample two (bacterial suspension+spherules but with no conjugate added). Additionally, solutions were impulse-centrifuged, supernatant was gently discarded, while bacteria-containing HA spherules were culture plated as before and quantitatively assessed. […]

[2] = test system: S. aureus ATCC6538 biofilms; experiment: Survival of S. aureus biofilm on pretreated, rinsed HA discs; conditions: pretreated HA discs
Experimental: HA discs incubated in DMSO or phosphate buffer served as control samples. Next, discs were rinsed 3 times with sterile water. After rinsing, 2 mL of 0.5 MF of. S. aureus ATCC6538 were introduced to wells containing HA discs as a substrate for biofilm development and biofilms were formed as before.

[3] = test system: planktonic S. aureus clinical osteomyelitis strains (MSSA and MRSA); experiment: MIC by microdilution against planktonic clinical S. aureus strains; conditions: for antimicrobial activity / MIC against planktonic S. aureus (in words): microdilution, 24 h
Experimental: (§1) Subsequently, the plate was incubated for 24 h/37° C. in a shaker to obtain optimal conditions for microbial growth and to prevent bacteria from forming biofilms. After incubation, the absorbance was measured once again. The following control samples were established: negative control sample one: sterile medium without microbes; negative control sample two: sterile medium without microbes implemented with DMSO (dimethyl sulfoxide, Sigma-Aldritch) to final concentration of 1% (v/v); positive control sample one: medium+microbes with no compound tested; positive control sample two: medium+microbes with no compound tested but implemented with DMSO to final concentration of 1% (v/v). […] To assess relative number of cells, the following calculations were performed. […] Next, the relative number of cells subjected to incubation with tested compounds were counted as follows: […].
as §1, with “Evaluation of the MIC of tested compounds against planktonic forms of clinical staphylococcal strains analyzed: To assess the impact of parent antibiotic and conjugates on microbial growth, 100 μl of microbial solutions of density 1×10^5 CFU/ml were placed into wells of 96-well test plates together with appropriate concentrations of tested compounds. […] Subsequently,” for “Subsequently,”, “plates were” for “the plate was”, “hrs/37°” for “h/37°”, “Sigma-Aldrich)” for “Sigma-Aldritch)”
The occurrence of opacification or lack of opacification of media was proof of pathogen growth or lack of growth, respectively. Additionally, bacterial solutions were cultured on the appropriate stable medium. Growth or lack of growth of bacterial colonies together with above-mentioned results from liquid cultures served as confirmation of results obtained spectrophotometrically.

[4] = test system: biofilms of S. aureus strain ATCC-6538; experiment: Preformed biofilms on HA discs, S. aureus; conditions: HA as substrate
Experimental: Antimicrobial susceptibility testing of BP-ciprofloxacin against preformed biofilms of S. aureus strain ATCC-6538 and P. aeruginosa strain ATCC-15442: Strains cultured on appropriate agar plates (Columbia agar plate for S. aureus; MacConkey agar plate for P. aeruginosa) were transferred to liquid microbiological media and incubated for 24 h/37° C. under aerobic conditions. After incubation, strains were diluted to the density of 1 MF. The microbial dilutions were introduced to wells of 24-well plates containing HA discs as a substrate, or simply to polystyrene wells where the bottom surface of the wells served as the substrate for biofilm development. Strains were incubated at 37° C. for 4 hrs. Next, the microbe-containing solutions were removed from the wells. The surfaces, HA discs and polystyrene plates, were gently rinsed to leave adhered cells and to remove planktonic or loosely-bound microbes. Surfaces prepared in this manner were immersed in fresh TSB medium containing 0.24-125 mg/L of BP-ciprofloxacin conjugate. After 24 hrs of incubation at 37° C. the surfaces were rinsed using physiological saline solution and transferred to 1 mL of 0.5% saponin (Sigma-Aldrich, St Louis, MO). The surfaces were vortex-mixed vigorously for 1 minute to detach cells. Subsequently, all microbial suspensions were diluted 10 to 10^9 times. Each dilution ([…]) was cultured on the appropriate stable medium (MacConkey, Columbia for P. aeruginosa and S. aureus, respectively) and incubated at 37-C for 24 hours. After this time, the microbial colonies were counted and the number of cells forming biofilm was assessed. Results were presented as the mean number of CFU per square millimeter surface±standard error of the mean. To estimate the exact surface area of HA discs, x-ray tomographic analysis was applied. For estimation of the area of test plate bottoms, the equation for circle area: πr2 was applied.
Antimicrobial susceptibility testing of 6 against preformed biofilms of S. aureus strain ATCC-6538 and P. aeruginosa strain ATCC-15442: Strains cultured on appropriate agar plates (Columbia agar plate for S. aureus; MacConkey agar plate for P. aeruginosa) were transferred to liquid microbiological media and incubated for 24 hrs/37° C. under aerobic conditions. After incubation, strains were diluted to the density of 1 MF. The microbial dilutions were introduced to wells of 24-well plates containing HA discs as a substrate, or simply to polystyrene wells where the bottom surface of the wells served as the substrate for biofilm development. Strains were incubated at 37° C. for 4 hrs. Next, the microbe-containing solutions were removed from the wells. The surfaces, HA discs and polystyrene plates, were gently rinsed to leave adhered cells and to remove planktonic or loosely-bound microbes. […] After 24 hrs of incubation at 37° C. the surfaces were rinsed using physiological saline solution and transferred to 1 mL of 0.5% saponin (Sigma-Aldrich, St Louis, MO). The surfaces were vortex-mixed vigorously for 1 minute to detach cells. Subsequently, all microbial suspensions were diluted 10-1 to 10-9 times. Each dilution ([…]) was cultured on the appropriate stable medium (MacConkey, Columbia for P. aeruginosa and S. aureus, respectively) and incubated at 37° C. for 24 hrs. After this time, the microbial colonies were counted and the number of cells forming biofilm was assessed. Results were presented as the mean number of CFU per square millimeter surface±standard error of the mean. To calculate the surface area of HA discs, x-ray tomographic analysis was applied. For estimation of the area of test plate bottoms, the equation for circle area: πr^2 was applied.

## O=C(O)c1cn(C2CC2)c2cc(N3CCN(C(=O)c4ccc(CC(P(=O)(O)O)P(=O)(O)O)cc4)CC3)c(F)cc2c1=O [Compound 11, 1-cyclopropyl-7-(4-(4-(2,2-diphosphonoethyl)benzoyl)piperazin-1-yl)-6-fluoro-4-oxo-1,4-dihydroquinoline-3-carboxylic acid]
[1]
  preventative antimicrobial activity on pretreated HA (in words): insignificant; also recorded: not detectable; also recorded: no antimicrobial activity is observed
[2]
  ability to prevent biofilm formation on pretreated HA (in words): no significant antimicrobial activity
[2]; listed as BAC
  ability to prevent biofilm formation on pretreated HA (in words): did not inhibit the growth of biofilms on bone substitute even at very high concentrations
[3]; MIC assay, S. aureus strains
  concentration of 11 relative to 6 to achieve the same antibacterial effect: 2-64 ×
[3]
  antimicrobial activity / MIC against planktonic S. aureus (in words): weaker activity
[3]; listed as BAC
  antimicrobial activity / MIC against planktonic S. aureus (in words): very little effect on bacterial growth under any circumstances; also recorded: has lost most of the activity
[4]
  bactericidal activity / reduction of CFUs against established biofilm (in words): insignificant; also recorded: No significant activity is observed at any concentration
